Test [1] deals with trypanothione synthetase of L. infantum (LiTryS) (Leishmania infantum, UniProt A4I2Z3). As to the kind of experiment: TryS activity screening assay on recombinant LiTryS. The format is biochemical. The settings on record: read-out: LiTryS activity [% at 30 μM]. The method, then:
TryS from different trypanosomatids was produced in recombinant form with an N-terminal His-tag. The constructs pET-15b TbTryS and pET-28c(+)LiTryS were used to express TryS of T. b. brucei 427 (MITat1.4, GenBank accession protein id CAC87573.1), and L. infantum JPCM5 (GenBank accession protein id CAM69145.1). E. coli strain BL21 (DE3) served as the expression host. For TbTryS, the cells were cultured in a medium based in Terrific Broth and induction with isopropyl 1-thio-β-D-galactopyranoside (IPTG), while for LiTryS, the cells were cultured in ZYM-5052 auto-induction medium. For a detailed description of the expression, see Benítez et al.. The purification was performed by immobilised metal affinity chromatography in a HisTrap Fast Flow column (GE Healthcare) followed by size exclusion chromatography. […] The fractions containing recombinant TryS with ≥95% purity were pooled and concentrated to >10 mg protein/mL using a 10 kDa cut-off Amicon filter (Millipore, Billerica, CA). Glycerol was added at a final concentration of 40% (v/v). The samples were stored at -80°C. Enzyme purity and activity were assessed by SDS-PAGE (12%) under reducing conditions and by the end-point TryS assay (see TryS activity screening assay), respectively. Protein concentration was determined using the bicinchoninic acid assay with bovine serum albumin as standard. The protocols yielded 25–30 mg TbTryS or LiTryS per litre of culture medium and homogeneous specific activity.
For all TryS, ATP was used at 150 μM because of a high background signal at higher concentrations and Spd fixed at 2 mM, in agreement with the intracellular levels calculated from data reported in the literature for trypanosomatids. GSH was adjusted to 0.05 and 0.25 mM for TbTryS and LiTryS, respectively, to avoid substrate inhibition or to approach physiological concentrations. […] Microtiter plate wells were loaded with 5 μL of the test compound, DMSO (reaction control) or a TryS specific inhibitor (inhibition control) and 40 μL of MM solution. The reactions were then started by adding 5 μL of TryS (2 and 3*10^−5 μmol*min^-1*mL^-1 for LiTryS and TbTryS, respectively) and stopped after 15 min with 200 μL BIOMOL® GREEN reagent (Enzo Life Sciences). The compounds used as inhibition control were added at concentrations that inhibited 50% TryS activity: 30 μM and 150 nM MOL2008 for TbTryS and LiTryS, respectively. Blanks were prepared for each condition by adding 5 μL of screening reaction buffer instead of the enzyme. The TryS activity is calculated as follows: TrySactivity%=A650nmCi-A650nmCiB/A650nmE-A650nmEB*100%
A650 nm Ci is the mean absorbance at 650 nm for the reaction test with compound I (Ci), A650 nm CiB is the mean absorbance at 650 nm for the blank control with compound I (CiB), A650 nm E is the mean absorbance at 650 nm for the reaction control with DMSO (E) and A650 nm EB is the mean absorbance at 650 nm for the blank control with DMSO (EB). The errors were expressed as 2 standard deviations (SD), SD estimated as σ^n−1.

The test system of test [2] is L. infantum amastigotes (intracellular, in J774.A1 macrophages). Kind of test: Viability assay for L. infantum amastigotes. The settings on record: Leishmania infantum, J774.A1, 24 h, read-out: L. infantum amastigote viability [% at 20 μM]. The format is cell-based. The method, then:
Viability assay for L. infantum amastigotes. L. infantum promastigotes from the reference strain MHOM/MA/67/ITMAP263, stably transfected with a vector encoding a red-shifted luciferase gene (RE9HLUC; Branchini et al.; Benítez et al.) were grown in fresh complete RPMI medium (RPMI basic medium containing 25 mM HEPES, 10% v/v iFBS, 100 U/mL penicillin, 100 μg/mL streptomycin and 15 μg/mL hygromycin B) at 28°C in sealed culture flasks. Metacyclic promastigotes were obtained by a negative selection procedure using peanut agglutinin and used to infect murine macrophages (cell line J774.A1) at a 1:10 ratio for macrophages (5×10^6 cells): parasites (5×10^7 cells). 200 μL of this suspension was added per well to a 96-well culture microplate, which was then incubated at 37°C for 24 h in a 5% CO2/95% air atmosphere incubator. […] The culture microplate was incubated in the CO2 incubator for additional 24 h. Next, the supernatant was removed and the microplate wells were washed with pre-warmed PBS (200 μL). […] All conditions were tested in triplicates and the percentage amastigote viability was calculated as described for infective T. b. brucei, with errors expressed as one SD, estimated as σ^n-1.
A macrophage cell density correction factor based on the incorporation of propidium iodide was calculated and applied to normalise amastigote viability related to host cell density in the well. For a detailed explanation of the protocol, see Benítez et al..

Counter-ions that a name gives are not always drawn.

trypanothione synthetase of L. infantum (LiTryS), sequence (A4I2Z3 entry or part of it): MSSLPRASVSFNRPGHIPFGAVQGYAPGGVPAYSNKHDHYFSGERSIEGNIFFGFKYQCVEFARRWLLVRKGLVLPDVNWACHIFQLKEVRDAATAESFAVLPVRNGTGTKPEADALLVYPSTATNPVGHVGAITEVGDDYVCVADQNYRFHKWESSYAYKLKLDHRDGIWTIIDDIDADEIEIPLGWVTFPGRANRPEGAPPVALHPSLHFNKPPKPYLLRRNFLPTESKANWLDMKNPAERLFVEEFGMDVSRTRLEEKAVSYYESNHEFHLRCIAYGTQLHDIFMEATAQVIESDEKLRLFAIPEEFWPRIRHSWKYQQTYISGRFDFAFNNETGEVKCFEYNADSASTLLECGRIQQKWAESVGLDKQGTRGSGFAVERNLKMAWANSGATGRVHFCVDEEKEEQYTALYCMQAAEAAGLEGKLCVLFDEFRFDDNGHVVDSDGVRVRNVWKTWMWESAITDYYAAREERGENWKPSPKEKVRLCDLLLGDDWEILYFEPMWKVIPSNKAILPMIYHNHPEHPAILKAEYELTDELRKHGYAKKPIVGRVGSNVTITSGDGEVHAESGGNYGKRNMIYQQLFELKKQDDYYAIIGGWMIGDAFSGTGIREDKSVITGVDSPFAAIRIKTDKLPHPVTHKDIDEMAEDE

In the case of `CC(C)(C)OC(=O)N1CCN(CCNC(=O)CN2C(=O)C(C)(C)CCc3ccccc32)CC1` [3b, tert-Butyl 4-{2-[2-(3,3-dimethyl-2-oxo-2,3,4,5-tetrahydro-1H-benzo[b]azepin-1-yl)acetamido]ethyl}piperazine-1-carboxylate], the activity at 30 µM in test [1] was 107 ± 12.6%. Moreover, in test [2], the viability (usually a read-out of living cells in per cent, often relative to untreated cells) at 20 µM was found to be 94.8 ± 2.5%. For the compound `CO/N=C1\CCC(=O)Nc2ccccc21` [compound 20, (E)-5-methoxyimino-1,3,4,5-tetrahydro-2H-benzo[b]azepin-2-one], the activity at 30 µM in test [1] turned out to be 102 ± 2.4%. Consider `CN1CCN(C(=O)CN2C(=O)CCCc3ccccc32)CC1` [2v, 1-[2-(4-Methylpiperazin-1-yl)-2-oxoethyl]-1,3,4,5-tetrahydro-2H-benzo[b]azepin-2-one hydrochloride], for which the activity at 30 µM in test [1] amounted to 98.2 ± 13.7%. For the same compound, in test [2], the viability at 20 µM was determined as 72.4 ± 0.3%.

With `CN(CCNC(=O)CN1C(=O)C(C)(C)CCc2ccccc21)C(=O)OC(C)(C)C` [3c, tert-Butyl {2-[2-(3,3-dimethyl-2-oxo-2,3,4,5-tetrahydro-1H-benzo[b]azepin-1-yl)acetamido]ethyl}(methyl)carbamate], the activity at 30 µM in test [1] is 104 ± 7.1%.

In the case of `CC(C)(C)OC(=O)N1CCN(CCNC(=O)CN2C(=O)CCCc3ccccc32)CC1` [2b, tert-Butyl 4-{2-[2-(2-oxo-2,3,4,5-tetrahydro-1H-benzo[b]azepin-1-yl)acetamido]ethyl}piperazine-1-carboxylate], the activity at 30 µM in test [1] worked out at 91.4 ± 3.1%. The viability at 20 µM in test [2] was 89.5 ± 9.9%. As for `O=C(CN1C(=O)CCCc2ccccc21)N1CCOCC1` [2h, 1-(2-Morpholino-2-oxoethyl)-1,3,4,5-tetrahydro-2H-benzo[b]azepin-2-one], the activity at 30 µM in test [1] stood at 92.7 ± 9.2%.

Regarding `CC(C)(C)OC(=O)N1CCN(C(=O)CN2C(=O)CCCc3ccccc32)CC1` [2d, tert-Butyl 4-[2-(2-oxo-2,3,4,5-tetrahydro-1H-benzo[b]azepin-1-yl)acetyl]piperazine-1-carboxylate], the activity at 30 µM in test [1] stood at 108 ± 14.6%.

`NCCCCNC(=O)CN1C(=O)CCCc2ccccc21` [2s, N-(4-Aminobutyl)-2-(2-oxo-2,3,4,5-tetrahydro-1H-benzo[b]azepin-1-yl)acetamide hydrochloride]: the activity at 30 µM in test [1] turned out to be 104 ± 5.3%. Take `CN1CCN(CCNC(=O)CN2C(=O)CCCc3ccccc32)CC1` [2u, N-[2-(4-Methylpiperazin-1-yl)ethyl]-2-(2-oxo-2,3,4,5-tetrahydro-1H-benzo[b]azepin-1-yl)acetamide dihydrochloride]: the activity at 30 µM in test [1] is 106 ± 9.8%. Further, in test [2], the viability at 20 µM was 85 ± 10.6%. On the same counts, the results for `O=C(CN1C(=O)CCCc2ccccc21)NCCN1CCOCC1` [2t, N-(2-Morpholinoethyl)-2-(2-oxo-2,3,4,5-tetrahydro-1H-benzo[b]azepin-1-yl)acetamide hydrochloride] are 91 ± 3.9% and 71.2 ± 1.5%. With `CC(C)(C)OC(=O)NCCNC(=O)CN1C(=O)CCCc2ccccc21` [2c, tert-Butyl {2-[2-(2-oxo-2,3,4,5-tetrahydro-1H-benzo[b]azepin-1-yl)acetamido]ethyl}carbamate], the activity at 30 µM in test [1] came to 96.7 ± 7.5%.

Regarding `CC(C)(C)OC(=O)NC1CCN(C(=O)CN2C(=O)CCCc3ccccc32)CC1` [2g, tert-Butyl {1-[2-(2-oxo-2,3,4,5-tetrahydro-1H-benzo[b]azepin-1-yl)acetyl]piperidine-4-yl}carbamate], in test [1], the activity at 30 µM is 93.3 ± 6.1%. On the same count and under the same terms, the value for `CN(CCNC(=O)CN1C(=O)Cc2ccccc2-c2ccccc21)C(=O)OC(C)(C)C` [4c, tert-Butyl N-methyl-{2-[2-(6-oxo-6,7-dihydro-5H-dibenzo[b,d]azepin-5-yl)acetamido]ethyl}carbamate] was 87.6 ± 4.6%. Still for that read-out and setting: to `O=C(O)CN1C(=O)Cc2ccccc2-c2ccccc21` [compound 19, 2-(6-Oxo-6,7-dihydro-5H-dibenzo[b,d]azepin-5-yl)acetic acid] belongs 97.8 ± 6.1%; to `CC(C)(C)OC(=O)NCCCCNC(=O)CN1C(=O)CCCc2ccccc21` [2f, tert-Butyl {4-[2-(2-oxo-2,3,4,5-tetrahydro-1H-benzo[b]azepin-1-yl)acetamido]butyl}carbamate], 83.6 ± 8.7%; to `CO/N=C1\CCC(=O)N(CC(=O)OC(C)(C)C)c2ccccc21` [compound 21, tert-Butyl (E/Z)-2-(5-(methoxyimino)-2-oxo-2,3,4,5-tetrahydro-1H-benzo[b]azepin-1-yl)acetate], 92.4 ± 10.3%. For the compound `CO/N=C1\CCC(=O)N(CC(=O)O)c2ccccc21` [compound 22, (E/Z)-2-(5-(Methoxyimino)-2-oxo-2,3,4,5-tetrahydro-1H-benzo[b]azepin-1-yl)acetic acid], the activity at 30 µM in test [1] came out at 96.7 ± 5.2%.

For `CNCCNC(=O)CN1C(=O)C(C)(C)CCc2ccccc21` [3e, 2-(3,3-Dimethyl-2-oxo-2,3,4,5-tetrahydro-1H-benzo[b]azepin-1-yl)-N-[2-(methylamino)ethyl]acetamide hydrochloride], the activity at 30 µM in test [1] was determined as 99.8 ± 7.1%. Still for that read-out and setting: to `CNCCNC(=O)CN1C(=O)CCCc2ccccc21` [2r, N-[2-(Methylamino)ethyl]-2-(2-oxo-2,3,4,5-tetrahydro-1H-benzo[b]azepin-1-yl)acetamide hydrochloride] belongs 88.9 ± 10.4%; to `CCN(CC)C(=O)CN1C(=O)CCCc2ccccc21` [2k, N,N-Diethyl-2-(2-oxo-2,3,4,5-tetrahydro-1H-benzo[b]azepin-1-yl)acetamide], 92.9 ± 6.4%; to `NCCNC(=O)CN1C(=O)CCCc2ccccc21` [2p, N-(2-Aminoethyl)-2-(2-oxo-2,3,4,5-tetrahydro-1H-benzo[b]azepin-1-yl)acetamide hydrochloride], 82.4 ± 9.5%.

For `CN(CCNC(=O)CN1C(=O)CCCc2ccccc21)C(=O)OC(C)(C)C` [2e, tert-Butyl methyl-{2-[2-(2-oxo-2,3,4,5-tetrahydro-1H-benzo[b]azepin-1-yl)acetamido]ethyl}carbamate], in test [1], the activity at 30 µM turned out to be 92.5 ± 37.2%. Same read-out and setting: the value for `O=C(CN1C(=O)CCCc2ccccc21)N1CCCCC1` [2i, 1-[2-Oxo-2-(piperidin-1-yl)ethyl]-1,3,4,5-tetrahydro-2H-benzo[b]azepin-2-one] was 89.4 ± 4.6%. For the compound `CO/N=C1\CCC(=O)N(CC(=O)NCCN2CCN(C(=O)OC(C)(C)C)CC2)c2ccccc21` [5b, tert-Butyl (E/Z)-4-(2-{2-[5-(methoxyimino)-2-oxo-2,3,4,5-tetrahydro-1H-benzo[b]azepin-1-yl]acetamido}ethyl)piperazine-1-carboxylate], the activity at 30 µM in test [1] is 97.8 ± 13.3%. For the same compound, in test [2], the viability at 20 µM stood at 93 ± 9.3%.

The values above are taken from publication PMC10688702, “The indole motif is essential for the antitrypanosomal activity of N^5-substituted paullones” (PLOS ONE, 2023).
